According to PMC6155365, “A Phase 3 Study of Micafungin Versus Amphotericin B Deoxycholate in Infants With Invasive Candidiasis” (The Pediatric Infectious Disease Journal, 2018):
In brackets after ≈: the same amount, converted by molar mass. Like-named read-outs stand apart in the source and are kept apart here. *1 amine or outer side, *2 acyl side, *3 side chain or, on linkers, in order; H or OH if unused. Where a SMILES comes first, the peptide text is derived from it. Bridges are numbered along the chain shown (N, C = ends). [ ]: non-standard residue; d: D form. The star is where a group is joined. hTyr(3S-OH,4S-OH,3'-OSO3H) = N[C@H](C(=O)O)[C@H](O)[C@@H](O)c1ccc(O)c(OS(=O)(=O)O)c1; Orn(4R-OH,5R-OH) = O=C([C@H](C[C@@H](O)[C@@H](O)N[*:3])N[*:1])[*:2]; Pro(3S-OH,4S-Me) = C[C@H]1CN[C@H](C(=O)O)[C@H]1O; X1 = CCCCCOc1ccc(-c2cc(-c3ccc(C(=O)*)cc3)no2)cc1; Gln(3R-OH) = NC(=O)C[C@@H](O)[C@H](N)C(=O)O; Hyp = O=C(O)[C@@H]1C[C@@H](O)CN1

Tests used:
[1] = Adverse events, safety analysis set; conditions: for Early discontinuation of treatment: AEs / Electrolyte supplementation received: MCA n = 20, AmB-D n = 10; for Deaths: all deaths reported from the study; for Magnesium supplementation / Potassium supplementation: in vivo; for TEAE anemia / TEAE thrombocytopenia: irrespective of relatedness to study drug; for Drug-related TEAEs / Drug-related TEAEs leading to death / Drug-related serious TEAEs: possible or probable, as assessed by the investigator; for Serious TEAEs / TEAEs: safety analysis set; for TEAEs: MCA N = 20 (10 mg/kg/d), AmB-D N = 10 (1 mg/kg/d)
[2] = tested on: C. glabrata; assay: In vitro susceptibility MIC, CLSI M27-A3; type: cell-based, Candida glabrata; conditions: Nakaseomyces glabratus; baseline isolate, persistent infection in AmB-D group
Procedure: (§1) All fungal isolates were identified to the genus and species level using standard techniques. Briefly, each isolate was subcultured in CHROMagar Candida (Becton Dickinson and Company, Sparks, MD) and molecular identification by sequencing of the internal transcribed spacer region and/or 28S ribosomal subunit. In vitro susceptibility testing was performed on all fungal isolates collected during the study to calculate the minimum inhibitory concentrations (MICs) according to Clinical Laboratory Standards Institutes (CLSI) methodology (M27-A3) and European Committee on Antimicrobial Susceptibility Testing (EUCAST) methodology (EDef7.1).[24],[25]

[3] = tested on: C. albicans; assay: In vitro susceptibility MIC, EUCAST EDef7.1; type: cell-based, Candida albicans; conditions: for MIC: Candida albicans
Procedure: as §1

[4] = in vivo
[5] = Clinical laboratory test findings, safety analysis set; type: in vivo, infants; conditions: postbaseline increase from baseline
[6] = tested on: Candida spp. (invasive candidiasis); assay: Phase 3 randomized double-blind study, efficacy in infants with proven invasive candidiasis (NCT00815516); type: in vivo; conditions: for Early discontinuation of treatment: lack of efficacy / Infants alive at 1 week after last dose but not fungal free: MCA n = 20, AmB-D n = 10; for Positive clinical response: at end of study and 1 week after last dose, infants with signs at baseline (MCA 18, AmB-D 10); for Infants alive at 1 week after last dose but not fungal free: did not meet primary efficacy end point
Procedure: This was a phase 3, randomized, double-blind, multicenter, parallel-group, noninferiority study (ClinicalTrials.gov identifier: […] The follow-up was performed to capture emergent and recurrent fungal infections, to obtain a final safety evaluation and to check for resolution of those IC episodes that had not resolved by the end of treatment. […] An independent Data Review Panel reviewed and confirmed the diagnosis of IC and evaluated the efficacy outcome for each subject. Drug safety was evaluated by an unblinded Data Safety and Monitoring Board. […] FFS was defined as an infant alive and fungal free with no requirement for continued treatment with alternative antifungal therapy. […] Responses were defined as follows: complete response (resolution of all attributable signs related to fungal infection); partial response (improvement in attributable signs related to the fungal infection); stabilization (minor improvement or no change in attributable signs related to the fungal infection and the infant continued on therapy without deterioration); progression (deterioration in attributable signs related to the fungal infection or death presumably related to fungal infection). […] Persistence was defined by continued isolation or histologic documentation from a normally sterile site. […] Following positive Candida cultures, end-organ dissemination was assessed using abdominal ultrasound and/or computed tomography scanning, echocardiogram, head imaging with ultrasound, magnetic resonance imaging or computed tomography scanning or ophthalmoscopy. An emergent fungal infection was defined as a non-Candida invasive fungal infection detected at any time during the study or any invasive fungal infection detected >96 hours postbaseline involving a Candida spp. other than those detected at baseline.

[7] = tested on: C. glabrata; assay: In vitro susceptibility MIC, EUCAST EDef7.1; type: cell-based, Candida glabrata; conditions: Nakaseomyces glabratus; baseline isolate, persistent infection in AmB-D group
Procedure: as §1

[8] = tested on: C. albicans; assay: In vitro susceptibility MIC, CLSI M27-A3; type: cell-based; conditions: Candida albicans
Procedure: as §1

[9] = tested on: C. parapsilosis; assay: In vitro susceptibility MIC, CLSI M27-A3; type: cell-based, Candida parapsilosis
Procedure: as §1

[10] = adults, 100 mg/d (approximately 2 mg/kg); cited from earlier work
Text: AmB-D has been the standard of treatment for neonatal IC in the United States for many years,[7] but nephrotoxicity is a dose-limiting toxicity.[10] […] The use of fluconazole in infants may be limited because of the resistance of some Candida spp., its frequent use as prophylaxis in extremely premature infants, its poor activity against fungal biofilms and the high doses required to reach therapeutic concentrations.[9],[ ...

[11] = Population PK of MCA, linear 2-compartment model with body weight-based allometric scaling; type: in vivo; conditions: Infants (this study), mean ± SD
Procedure: Up to 3 PK blood samples (≤300 µL) were collected from infants who participated in the PK portion of the study. A population PK approach was used to define the PK profile of MCA. A linear 2-compartment population PK model with body weight–based allometric scaling was developed in neonatal and pediatric patient populations by amending a previous model[19],[26] and including data from the current study in addition to 2 previous phase 1 studies and 1 previous phase 3 study in infants.[20],[27],[28] Individual post hoc estimates of PK parameters, simulated area under the curve (AUC) at steady state and maximum plasma concentration at the end of 2-hour infusion at once-daily dose of MCA 10 mg/kg were derived based on the model.
A population PK model was developed using data from this and 8 other studies (data on file at Astellas). A 2-compartment model with body weight–based allometric scaling and first-order elimination adequately described MCA PK data regardless of age. In this study, PK data were collected from 12 of 30 study participants (Table 2).

[12] = tested on: C. parapsilosis; assay: In vitro susceptibility MIC, EUCAST EDef7.1; type: cell-based, Candida parapsilosis; conditions: baseline isolate
Procedure: as §1

[13] = tested on: invasive candidiasis; conditions: patients <16 years with IC; MCA 2 mg/kg, liposomal amphotericin B 3 mg/kg; cited from earlier work
Procedure: High rates of survival and successful treatment responses to MCA among patients <18 years of age with IC have been reported in prospective, observational studies.[32],[33] Success rates in pediatric studies are similar to the findings of our study in infants. For example, in a pediatric substudy from a randomized, double-blind study comparing MCA (2 mg/kg) with liposomal amphotericin B (3 mg/kg) in patients <16 years of age with IC, the investigators reported similar treatment success rates after MCA (defined as both a clinical and mycologic response at the end of therapy; 73% compared with 76 ...

[14] = premature and nonpremature infants <2 years, 9 clinical trials; cited from earlier work
Text: There was a slightly greater degree of nephrotoxicity at >25% baseline caused by AmB-D, although AmB-D-induced nephrotoxicity, defined as elevated serum creatinine, in the infant is usually reversible.[37] In understanding the relative tolerability of AmB-D in infants within the neonatal intensive care unit compared with older children, there are several hypotheses, including a greater nephronal reserve or the attention to appropriate hy ...

[15] = 216 h, follow-up cultures on day 9, AmB-D group infant
[16] = baseline isolate, persistent infection in AmB-D group

C[C@@H]1[C@H](O)[C@@H](C)/C=C/C=C/C=C/C=C/C=C/C=C/C=C/[C@H](O[C@@H]2O[C@H](C)[C@@H](O)[C@H](N)[C@@H]2O)C[C@@H]2O[C@](O)(C[C@@H](O)C[C@@H](O)[C@H](O)CC[C@@H](O)C[C@@H](O)CC(=O)O[C@H]1C)C[C@H](O)[C@H]2C(=O)O [AmB-D, Amphotericin B deoxycholate]
Early discontinuation of treatment: AEs [1]: 3 (30%) n (%)
Electrolyte supplementation received [1]: 5 (50%) n (%)
TEAEs: Blood and lymphatic system disorders ([1]; MedDRA system organ class): 6 (60) n (%)
TEAEs: General disorders and administration site conditions ([1]; MedDRA system organ class): 5 (50) n (%)
TEAEs: Investigations ([1]; MedDRA system organ class): 3 (30) n (%)
TEAEs: Metabolism and nutrition disorders ([1]; MedDRA system organ class): 2 (20) n (%)
TEAEs: Respiratory, thoracic and mediastinal disorders ([1]; MedDRA system organ class): 3 (30) n (%)
TEAEs: Skin and subcutaneous tissue disorders ([1]; MedDRA system organ class): 2 (20) n (%)
TEAEs: Vascular disorders ([1]; MedDRA system organ class): 3 (30) n (%)
Deaths [1]: 1 (10) n (%)
Magnesium supplementation [1]: 2 (20%) n (%)
Potassium supplementation [1]: 3 (30%) n (%)
TEAE anemia [1]: 3 (30%) n (%)
TEAE thrombocytopenia [1]: 3 (30%) n (%)
Drug-related TEAEs [1]: 5 (50) n (%)
Drug-related TEAEs leading to death [1]: 0 n (%)
Drug-related serious TEAEs [1]: 1 (10) n (%)
Serious TEAEs [1]: 7 (70) n (%)
TEAEs [1]: 9 (90) n (%)
MIC [2]: 1 µg/mL (≈ 1.08 µM)
MIC [3, 15]: 0.25 µg/mL (≈ 0.271 µM)
MIC [3, 16]: 0.5 µg/mL (≈ 0.541 µM)
MIC, EUCAST ([3]; follow-up cultures on day 9, AmB-D group infant): 0.5 µg/mL (≈ 0.541 µM)
TEAEs: Infections and infestations [4]: 3 (30) n (%)
Serum creatinine increase >100% [5]: 0 n/N (%)
Early discontinuation of treatment: lack of efficacy [6]: 1 (10%) n (%)
Clinical response: Partial ([6]; at 1 week after last dose of study drug, infants with signs at baseline): 0 n/N (%)
Positive clinical response [6]: 70%
Infants alive at 1 week after last dose but not fungal free [6]: 2 (20%) n (%)
Clinical response: Partial ([6]; end of study (30 days after last dose)): 0 n/N (%)
Emergent fungal infections through end of study ([6]; full analysis set): 0 n/N (%)
MIC [7]: 0.5 µg/mL (≈ 0.541 µM)
MIC [8, 15]: 1 µg/mL (≈ 1.08 µM)
MIC [8, 16]: 1 µg/mL (≈ 1.08 µM)

CCCCCOc1ccc(-c2cc(-c3ccc(C(=O)N[C@H]4C[C@@H](O)[C@@H](O)NC(=O)[C@@H]5[C@@H](O)[C@@H](C)CN5C(=O)[C@H]([C@H](O)CC(N)=O)NC(=O)[C@H]([C@H](O)[C@@H](O)c5ccc(O)c(OS(=O)(=O)O)c5)NC(=O)[C@@H]5C[C@@H](O)CN5C(=O)[C@H]([C@@H](C)O)NC4=O)cc3)no2)cc1 [MCA, micafungin] (X1-[Orn(4R-OH,5R-OH)]T[Hyp][hTyr(3S-OH,4S-OH,3'-OSO3H)][Gln(3R-OH)][Pro(3S-OH,4S-Me)]; lactam 1-C)
Early discontinuation of treatment: AEs [1]: 3 (15%) n (%)
Electrolyte supplementation received [1]: 6 (30%) n (%)
TEAEs: Blood and lymphatic system disorders ([1]; MedDRA system organ class): 10 (50) n (%)
TEAEs: General disorders and administration site conditions ([1]; MedDRA system organ class): 3 (15) n (%)
TEAEs: Infections and infestations ([1]; MedDRA system organ class): 11 (55) n (%)
TEAEs: Investigations ([1]; MedDRA system organ class): 5 (25) n (%)
TEAEs: Metabolism and nutrition disorders ([1]; MedDRA system organ class): 1 (5) n (%)
TEAEs: Respiratory, thoracic and mediastinal disorders ([1]; MedDRA system organ class): 0 n (%)
TEAEs: Skin and subcutaneous tissue disorders ([1]; MedDRA system organ class): 1 (5) n (%)
TEAEs: Vascular disorders ([1]; MedDRA system organ class): 3 (15) n (%)
Deaths [1]: 3 (15) n (%)
Magnesium supplementation [1]: 3 (15%) n (%)
Potassium supplementation [1]: 2 (10%) n (%)
TEAE anemia [1]: 9 (45%) n (%)
TEAE thrombocytopenia [1]: 2 (10%) n (%)
SAE anemia ([1]; most common SAE in the MCA group): 4 (20%) n (%)
Drug-related TEAEs [1]: 11 (55) n (%)
Drug-related TEAEs leading to death [1]: 0 n (%)
Drug-related serious TEAEs [1]: 6 (30) n (%)
Serious TEAEs [1]: 12 (60) n (%)
TEAEs [1]: 18 (90) n (%)
MCA MIC, CLSI ([9]; baseline isolate, persistent infection 1 of 2 in MCA group): 1 µg/mL
MCA MIC, CLSI ([9]; baseline isolate, the other persistent infection in MCA group): 1 µg/mL
MCA MIC, CLSI ([9]; follow-up isolates collected on day 19, both MCA-treated infants): 1 µg/mL
Mean exposure (AUC) [10]: 100000 ng·h/mL
Early discontinuation of treatment: lack of efficacy [6]: 1 (5%) n (%)
Positive clinical response [6]: 61%
Infants alive at 1 week after last dose but not fungal free [6]: 5 (25%) n (%)
CL ([11]; N = 12, MCA 10 mg/kg iv, individual post hoc estimates): 0.068 ± 0.039 (0.022–0.147) L/h
CL ([11]; N = 12, MCA 10 mg/kg iv): 0.487 ± 0.200 (0.225–0.876) mL/min/kg
Vss ([11]; N = 12, MCA 10 mg/kg iv): 0.480 ± 0.159 (0.306–0.799) L/kg
t1/2 ([11]; N = 12, MCA 10 mg/kg iv): 12.25 ± 2.87 (7.51–16.92) h
AUCss ([11]; N = 12, simulated at 10 mg/kg once daily, 2-hour infusion): 399.32 ± 163.88 (190.33–742.30) μg·h/mL
C2h (steady-state plasma concentration at end of 2-hour infusion) ([11]; N = 12, simulated at 10 mg/kg, 2-hour infusion): 31.06 ± 10.53 (17.01–49.69) μg/mL
MCA MIC, EUCAST ([12]; persistent infection 1 of 2 in MCA group): 1 µg/mL
MCA MIC, EUCAST ([12]; the other persistent infection in MCA group): 0.5 µg/mL
Treatment success rate (clinical and mycologic response at end of therapy) [13]: 73%
Treatment-related TEAEs, patients [14]: 23%
